Assay results published in the supplement of paper PMC11061612.

Legend:
Test in all cases: Bliss excess, mean over the matrix (fraction); higher = more synergy
[1] = test system: TGBC11TKB (Gastric Carcinoma)
Method in brief: (§1)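 Cell lines grown in DMEM/F12 or RPMI with 10% FBS were plated in 1536-well plates and held 24 hours at 37°C, 5% CO2 before 72 hours of exposure to two-drug dose matrices, with DMSO typically at 0.2%. CellTiter-Glo 2.0 luminescence gave viability, which was converted to inhibition. Vehicle wells were set to 0 and blank wells to 1. Combination Emax is the second-highest inhibition in the matrix, and Bliss excess is the observed combination effect minus the expected EA + EB − EA·EB, where EA and EB are the single-agent effects.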

EW-18 (Ewing's Sarcoma) = test system: EW-18 (Ewing's Sarcoma)
Method in brief: as §1

[2] = test system: DG-75 (Burkitt's Lymphoma)
Method in brief: as §1

[3] = test system: NCI-H513 (Other Solid Carcinomas)
Method in brief: as §1

[4] = test system: NCI-H2347 (Lung Adenocarcinoma)
Method in brief: as §1

A704 (Kidney Carcinoma) = test system: A704 (Kidney Carcinoma)
Method in brief: as §1

[5] = test system: SNU-C1 (Colorectal Carcinoma)
Method in brief: as §1

[6] = test system: NCI-H322M (Lung Adenocarcinoma)
Method in brief: as §1

[7] = test system: EMC-BAC-2 (Non-Small Cell Lung Carcinoma)
Method in brief: as §1

[8] = test system: SCC-9 (Oral Cavity Carcinoma)
Method in brief: as §1

[9] = test system: KYSE-150 (Esophageal Squamous Cell Carcinoma)
Method in brief: as §1

[10] = test system: HSC-2 (Oral Cavity Carcinoma)
Method in brief: as §1

NH-12 (Neuroblastoma) = test system: NH-12 (Neuroblastoma)
Method in brief: as §1

RPMI-7951 (Melanoma) = test system: RPMI-7951 (Melanoma)
Method in brief: as §1

[11] = test system: HuP-T3 (Pancreatic Carcinoma)
Method in brief: as §1

BT-20 (Breast Carcinoma) = test system: BT-20 (Breast Carcinoma)
Method in brief: as §1

IMR-5 (Neuroblastoma) = test system: IMR-5 (Neuroblastoma)
Method in brief: as §1

[12] = test system: NCI-H2405 (Lung Adenocarcinoma)
Method in brief: as §1

[13] = test system: OCUB-M (Breast Carcinoma)
Method in brief: as §1

Compound `COc1cccc(OCCCN)c1-c1cc(Nc2cnc(C#N)cn2)n[nH]1` [Prexasertib] + C=CCn1c(=O)c2cnc(Nc3ccc(N4CCN(C)CC4)cc3)nc2n1-c1cccc(C(C)(C)O)n1 [AZD1775] (first compound max 1 µM, partner max 1 µM) has a Bliss excess [1] of 0.0431, a Bliss excess (EW-18 (Ewing's Sarcoma)) of -0.0615 and a Bliss excess [2] of 0.0708. For the same compound, the Bliss excess [3] was 0.0545, the Bliss excess [4] was -0.0548 and the Bliss excess (A704 (Kidney Carcinoma)) was 0.018. The Bliss excess [5] was 0.0175, the Bliss excess [6] was 0.0366 and the Bliss excess [7] was 0.0413. The Bliss excess [8] was 0.0249, the Bliss excess [9] was 0.149 and the Bliss excess [10] was 0.178. The Bliss excess (NH-12 (Neuroblastoma)) was 0.047, the Bliss excess (RPMI-7951 (Melanoma)) was 0.0723 and the Bliss excess [11] was 0.0054. It also gave a Bliss excess (BT-20 (Breast Carcinoma)) of 0.0725, a Bliss excess (IMR-5 (Neuroblastoma)) of 0.12 and a Bliss excess [12] of 0.032. It also gave a Bliss excess [13] of 0.232.

`Cc1cc2ncnn2cc1Nc1ncc2c(n1)n(C1CCOCC1)c(=O)n2C` [AZD7648] + C=CCn1c(=O)c2cnc(Nc3ccc(N4CCN(C)CC4)cc3)nc2n1-c1cccc(C(C)(C)O)n1 [AZD1775] (first compound max 10 µM, partner max 1 µM) showed a Bliss excess [1] of -0.0551, a Bliss excess (EW-18 (Ewing's Sarcoma)) of -0.0322 and a Bliss excess [2] of -0.0652. For the same compound, the Bliss excess [3] was 0.0054, the Bliss excess [4] was -0.0279 and the Bliss excess (A704 (Kidney Carcinoma)) was -0.0409. It also gave a Bliss excess [5] of -0.0209, a Bliss excess [6] of -0.0215 and a Bliss excess [7] of 0.0058. For the same compound, the Bliss excess [8] was 0.0332, the Bliss excess [9] was 0.0333 and the Bliss excess [10] was 0.0566. For the same compound, the Bliss excess (NH-12 (Neuroblastoma)) was 0.0005, the Bliss excess (RPMI-7951 (Melanoma)) was -0.039 and the Bliss excess [11] was -0.0189. The Bliss excess (BT-20 (Breast Carcinoma)) was -0.0186, the Bliss excess (IMR-5 (Neuroblastoma)) was -0.0146 and the Bliss excess [12] was -0.0064. For the same compound, the Bliss excess [13] was 0.0389.

With `CN(C)CCCOc1ccc(-c2ccc3ncc4c(c3c2)n(C2CCOCC2)c(=O)n4C)cn1` [AZD0156] + C[C@@H]1COCCN1C2=NC(=NC(=C2)C3(CC3)[S@](=N)(=O)C)C4=C5C=CNC5=NC=C4 [AZD6738] (first compound max 1 µM, 7x7, partner max 10 µM) the Bliss excess [1] was 0.0055, the Bliss excess (EW-18 (Ewing's Sarcoma)) was 0.0047 and the Bliss excess [2] was 0.0645. It also gave a Bliss excess [3] of 0.0235, a Bliss excess [4] of -0.049 and a Bliss excess (A704 (Kidney Carcinoma)) of -0.0067. For the same compound, the Bliss excess [5] was 0.0001, the Bliss excess [6] was -0.0076 and the Bliss excess [7] was 0.0272. For the same compound, the Bliss excess [8] was -0.0424, the Bliss excess [9] was 0.0146 and the Bliss excess [10] was 0.0867. It also gave a Bliss excess (NH-12 (Neuroblastoma)) of -0.0215, a Bliss excess (RPMI-7951 (Melanoma)) of 0.0468 and a Bliss excess [11] of 0.0181. For the same compound, the Bliss excess (BT-20 (Breast Carcinoma)) was 0.0152, the Bliss excess (IMR-5 (Neuroblastoma)) was -0.0432 and the Bliss excess [12] was -0.0027. It also gave a Bliss excess [13] of -0.026.

`C[C@@H]1COCCN1c1cc(C2([S@](C)(=N)=O)CC2)nc(-c2ccnc3[nH]ccc23)n1` [AZD6738] + O=C(c1cc(Cc2n[nH]c(=O)c3ccccc23)ccc1F)N1CCN(C(=O)C2CC2)CC1 [Olaparib] (first compound max 10 µM, 7x7, partner max 10 µM) showed a Bliss excess [1] of -0.0236, a Bliss excess (EW-18 (Ewing's Sarcoma)) of 0.0292 and a Bliss excess [2] of -0.0619. For the same compound, the Bliss excess [3] was 0.0157, the Bliss excess [4] was -0.0515 and the Bliss excess (A704 (Kidney Carcinoma)) was -0.0282. It also gave a Bliss excess [5] of -0.0345, a Bliss excess [6] of -0.0491 and a Bliss excess [7] of -0.007. It also gave a Bliss excess [8] of 0.0422, a Bliss excess [9] of 0.0376 and a Bliss excess [10] of 0.0825. It also gave a Bliss excess (NH-12 (Neuroblastoma)) of -0.0308, a Bliss excess (RPMI-7951 (Melanoma)) of 0.0207 and a Bliss excess [11] of 0.0066. For the same compound, the Bliss excess (BT-20 (Breast Carcinoma)) was 0.0472, the Bliss excess (IMR-5 (Neuroblastoma)) was 0.0432 and the Bliss excess [12] was 0.0132. The Bliss excess [13] was 0.0347.

`CCN(CCO)CCCOc1ccc2c(Nc3cc(CC(=O)Nc4cccc(F)c4)[nH]n3)ncnc2c1` [AZD2811] + C=CCn1c(=O)c2cnc(Nc3ccc(N4CCN(C)CC4)cc3)nc2n1-c1cccc(C(C)(C)O)n1 [AZD1775] (first compound max 1 µM, partner max 1 µM) was tested, and the Bliss excess [1] was 0.0257, the Bliss excess (EW-18 (Ewing's Sarcoma)) was -0.134 and the Bliss excess [2] was 0.086. It also gave a Bliss excess [3] of -0.0195, a Bliss excess [4] of -0.0475 and a Bliss excess (A704 (Kidney Carcinoma)) of -0.0547. The Bliss excess [5] was -0.0321, the Bliss excess [6] was -0.0188 and the Bliss excess [7] was -0.0112. It also gave a Bliss excess [8] of -0.0179, a Bliss excess [9] of 0.0438 and a Bliss excess [10] of 0.0771. For the same compound, the Bliss excess (NH-12 (Neuroblastoma)) was -0.0012, the Bliss excess (RPMI-7951 (Melanoma)) was 0.0106 and the Bliss excess [11] was -0.0366. The Bliss excess (BT-20 (Breast Carcinoma)) was -0.0073, the Bliss excess (IMR-5 (Neuroblastoma)) was -0.0064 and the Bliss excess [12] was -0.021. For the same compound, the Bliss excess [13] was 0.0312.

Work on `Cc1cc2ncnn2cc1Nc1ncc2c(n1)n(C1CCOCC1)c(=O)n2C` [AZD7648] + CCN(CCO)CCCOc1ccc2c(Nc3cc(CC(=O)Nc4cccc(F)c4)[nH]n3)ncnc2c1 [AZD2811] (first compound max 10 µM, 7x7, partner max 1 µM) yielded a Bliss excess [1] of 0.0666, a Bliss excess (EW-18 (Ewing's Sarcoma)) of -0.0154 and a Bliss excess [2] of 0.0393. It also gave a Bliss excess [3] of -0.021, a Bliss excess [4] of 0.0131 and a Bliss excess (A704 (Kidney Carcinoma)) of -0.0368. For the same compound, the Bliss excess [5] was -0.0184, the Bliss excess [6] was -0.0182 and the Bliss excess [7] was 0.0514. For the same compound, the Bliss excess [8] was 0.0414, the Bliss excess [9] was 0.003 and the Bliss excess [10] was 0.0999. For the same compound, the Bliss excess (NH-12 (Neuroblastoma)) was -0.001, the Bliss excess (RPMI-7951 (Melanoma)) was 0.0312 and the Bliss excess [11] was 0.0003. The Bliss excess (BT-20 (Breast Carcinoma)) was -0.0432, the Bliss excess (IMR-5 (Neuroblastoma)) was -0.0188 and the Bliss excess [12] was -0.015. For the same compound, the Bliss excess [13] was -0.0108.

`CN(C)CCCOc1ccc(-c2ccc3ncc4c(c3c2)n(C2CCOCC2)c(=O)n4C)cn1` [AZD0156] + CCN(CCO)CCCOc1ccc2c(Nc3cc(CC(=O)Nc4cccc(F)c4)[nH]n3)ncnc2c1 [AZD2811] (first compound max 1 µM, 7x7, partner max 1 µM) gave a Bliss excess [1] of 0.0298, a Bliss excess (EW-18 (Ewing's Sarcoma)) of -0.0219 and a Bliss excess [2] of 0.057. For the same compound, the Bliss excess [3] was -0.0019, the Bliss excess [4] was -0.0299 and the Bliss excess (A704 (Kidney Carcinoma)) was -0.039. The Bliss excess [5] was -0.0245, the Bliss excess [6] was -0.0448 and the Bliss excess [7] was -0.0005. For the same compound, the Bliss excess [8] was -0.014, the Bliss excess [9] was -0.0382 and the Bliss excess [10] was 0.0232. It also gave a Bliss excess (NH-12 (Neuroblastoma)) of -0.0263, a Bliss excess (RPMI-7951 (Melanoma)) of -0.0152 and a Bliss excess [11] of -0.0379. For the same compound, the Bliss excess (BT-20 (Breast Carcinoma)) was -0.0276, the Bliss excess (IMR-5 (Neuroblastoma)) was -0.0257 and the Bliss excess [12] was -0.0241. For the same compound, the Bliss excess [13] was -0.0736.

`CS(=O)(=O)CCNCc1ccc(-c2ccc3ncnc(Nc4ccc(OCc5cccc(F)c5)c(Cl)c4)c3c2)o1` [Lapatinib] + NC1(c2ccc(-c3nc4ccn5c(=O)[nH]nc5c4cc3-c3ccccc3)cc2)CCC1 [MK-2206] (first compound max 10 µM, 7x7, partner max 10 µM) showed a Bliss excess [1] of -0.0334, a Bliss excess [3] of -0.0369 and a Bliss excess [4] of -0.0315. For the same compound, the Bliss excess [5] was -0.0184, the Bliss excess [8] was 0.0038 and the Bliss excess [9] was 0.0159. For the same compound, the Bliss excess [10] was 0.0806, the Bliss excess [12] was -0.111 and the Bliss excess [13] was 0.142.
